The results in this text go back to patent US10238713B2, “Cyclic tetrapeptides and therapeutic applications thereof” (LODZ UNIVERSITY OF TECHNOLOGY, priority 2010, dated 2019).

Data set [1] deals with PHA-induced proliferation of human peripheral blood mononuclear cells (PBMC). As to the kind of experiment: Proliferative response of PBMC to PHA (MTT). In kind it is cell-based. Conditions: four-day incubation.
Method: PBMC were isolated by centrifugation on Ficoll-uropoline gradient (density 1.077 g/ml) (Lymphoprep; PAA Laboratories), at 800×g for 20 min at 4° C. The interphase cells, consisting of lymphocytes (20%) and monocytes (80%) were then washed three times with Hanks' medium and re-suspended in the culture medium at density of 2×10^6 cells/ml.
The isolated PBMC were distributed into 96-well flat-bottom plates in 100 μl aliquots (2×10^5 cells/well). PHA was used at concentration of 5 μg/ml. The compounds were tested at concentrations of 1, 10 and 100 μg/ml. DMSO at appropriate dilutions served as control. After a four-day incubation in a cell culture incubator, the proliferative response of cells was determined by the colorimetric MTT method (Hansen et al., J. Immunol. Methods, 1989, pp. 203-210). The data are presented as a mean OD value from quadriplicate wells ±standard error (SE). The cultures “Control (−)” contained no mitogen (PHA). The cultures “Control (PHA)” contained PHA but not cyclic tetrapeptides.
Briefly, 25 μl of MTT (5 mg/ml) stock solution was added per well at the end of cell incubation and the plates were incubated for 3 h in a cell culture incubator. Then, 100 μl of the extraction buffer (20% SDS with 50% DMF, pH 4.7) was added. After additional overnight incubation, the optical density was measured at 550 nm (Dynatech 5000).
In data set [2] the test system is LPS-induced TNF-α production. Type of data set: cell-based. Conditions: Table 2A. How it is done: Human whole blood was diluted 10-fold with RPMI-1640 medium and distributed to 24-well culture plates in 1 ml aliquots. LPS was added to the culture at a concentration of 1 μg/ml. The studied peptides were used at concentrations of 1, 10 and 100 μg/ml. After overnight incubation, the supernatants were harvested and frozen at −20° C. until cytokine determination. TNF-α activity was determined using a bioassay. Briefly, WEHI 164.13 cells (ATCC CRL 1751) were seeded at a concentration of 2×10^4 cells/well in quadriplicate. Increasing dilutions of the assayed supernatant were mixed with the target cells in the presence of actinomycin D (1 μg/ml). After 20 h of incubation, MTT was added into the wells, and the cultures were incubated for an additional 4 h. […] The detection limit of the assay was about 2.5 pg/ml. One unit of TNF-α activity was defined as an inverse of supernatant dilution where 50% cell death took place. The cultures labeled “Control (−)” contained no LPS. The cultures labeled “Control (LPS)” contained LPS and none of the studied compounds. Statistical analysis was not applied since the data derive from single cultures (wells).

The test system of the next data set is human PBMC. As to the kind of experiment: Toxicity test: PBMC survival in 24 h culture (MTT). Conditions: ANOVA.
Data set [3] concerns mice, carrageenan-induced foot pad edema. As to the kind of experiment: Carrageenan-induced foot-pad edema test. In kind it is in vivo, mouse. Conditions: 4 h after carrageenan; peptides 250 μg i.p., DEX 25 μg i.p., 30 min before; FIGS. 17A-17C. How it is done: In this and the air-pouch test, 1.5 mg peptide was dissolved in 300 μl of DMSO, then in 0.9% NaCl to achieve the desired dose (250 μg/0.2 ml or 100 μg/0.2 ml). Carrageenan (Sigma) was dissolved in 0.9% aqueous NaCl (overnight). 50 μl of 2% carrageenan solution was injected intradermally into hind foot pads. The peptides were given in a single 250 μg dose (0.2 ml) per mouse intraperitoneally (i.p.), 30 min before carrageenan administration. Dexamethasone (DEX) (Dexaven, Polfa, Poland), a reference drug, was given i.p. in dose 25 μg per mouse. Control mice were administered i.p. appropriately diluted solvent (DMSO in aqueous NaCl) instead of peptides. The foot pads of “background” (BG) mice were injected with 50 μl of 0.9% aqueous NaCl. Foot pad edema was measured with a spring caliper, 2 h, 3 h and 4 h after administration of carrageenan. The results are presented in FIGS. 17A, 17B and 17C as mean values of the antigen-specific increase of the foot pad thickness measured in 5 mice in each experimental group and expressed in mm ±SE (only results from measurements 4 h following administration of carrageenan are presented in figures). Statistics: FIG. 17A: Control vs: DEX P=0.0001; 4B8M P=0.0001; P25 NS (P=1.0000); P28 NS (P=1.0000); P31 NS (P=0.0528); P35 P=0.0008 (ANOVA of Kruskal-Wallis); FIG. 17B: Statistics: Control vs: P22 NS (P=1.0000); P26 NS (P=1.0000); P27 P=0.0050; P30 P=0.0004; P33-b NS (P=1.0000); SP00-b P=0.0001; P00S-b NS (P=1.0000) (ANOVA of Kruskal-Wallis); FIG. 17C: Statistics: Control vs: P21 P=0.0147; P23-2 P=0.0083; P24 P=0.0001; P29 NS (P=0.9999); P32 P=0.0001; P33 NS (P=0.6806); P34 NS (P=0.1920) (ANOVA).
(In general: In the carrageenan paw model, swelling and tenderness develop within hours.)

Where [4] appears, read: compound 1 μg/ml, LPS 1 μg/ml, overnight.
Setting [5] is: compound 100 μg/ml (DMSO only: 196).
[6] abbreviates: 10 μg/ml, FIGS. 8A-8F (4B8M repeated per figure).
Setting [7] is: 100 μg/ml, FIGS. 8A-8F (4B8M repeated per figure).

Like-named read-outs stand apart in the source and are kept apart here. Non-standard residues stand in square brackets, D forms with d. Residues, ends and D or L forms follow the SMILES beside them. *: point of attachment. d(β3hF) = N[C@@H](CC(=O)O)Cc1ccccc1; β3hF = N[C@H](CC(=O)O)Cc1ccccc1; tBu = CC(C)(C)*

In the case of `O=C1C[C@@H](Cc2ccccc2)NC(=O)[C@H]2CCCN2C(=O)[C@H]2CCCN2C(=O)[C@@H](Cc2ccccc2)N1` [I-J] (cyclo([d(β3hF)][dF][dP][dP])), the “PHA-induced PBMC proliferation, P vs DMSO at appropriate dilution” value turned out to be 1.0000 in data set [1] (1 μg/ml, FIGS. 9A-9B); 1.0000 in data set [1] (10 μg/ml, FIGS. 9A-9F); 0.1257 in data set [1] (100 μg/ml, FIGS. 9A-9F). For the same molecule, the “% inhibition vs. DMSO” value worked out at 1.6% in data set [2] (compound 1 μg/ml), 4.4% in data set [2] (compound 10 μg/ml) and 0.0% in data set [2] (compound 100 μg/ml). The TNF-α in data set [2] (setting [4]) is 8033 pg/mL; in data set [2] (compound 10 μg/ml) it was 7658 pg/mL; in data set [2] (setting [5]), 203 pg/mL.

Regarding `O=C1C[C@H](Cc2ccccc2)NC(=O)[C@@H]2CCCN2C(=O)[C@@H]2CCCN2C(=O)[C@H](Cc2c[nH]c3ccccc23)N1` [I-L] (cyclo(PP[β3hF]W)), the “PBMC survival, P vs DMSO at appropriate dilution” value (“PBMC survival, P vs DMSO” below) came to 0.9999 in the data set on human PBMC (1 μg/ml, FIGS. 8A-8B); 1.0000 with human PBMC (setting [6]); 0.9957 in the data set on human PBMC (setting [7]).

Consider `CC(C)(C)Oc1ccc(C[C@@H]2NC(=O)C[C@H](Cc3ccccc3)NC(=O)[C@@H]3CCCN3C(=O)[C@@H]3CCCN3C2=O)cc1` [I-N] (cyclo(PP[β3hF]Y(tBu))), for which the “PBMC survival, P vs DMSO” value in the data set on human PBMC (1 μg/ml, FIGS. 8A-8B) was 1.0000; with human PBMC (setting [6]) it was 1.0000; in the data set on human PBMC (setting [7]) it was 1.0000.

In the case of `O=C1C[C@@H](Cc2ccccc2)NC(=O)[C@@H]2CCCN2C(=O)[C@@H]2CCCN2C(=O)[C@H](Cc2ccccc2)N1` [I-G] (cyclo(FPP[d(β3hF)])), the “PHA-induced PBMC proliferation, P vs DMSO at appropriate dilution” value in data set [1] (1 μg/ml, FIGS. 9A-9B) was determined as 0.9047; in data set [1] (10 μg/ml, FIGS. 9A-9F), 0.4297; in data set [1] (100 μg/ml, FIGS. 9A-9F) it was 0.9970. Besides, the entries for the “% inhibition vs. DMSO” value in data set [2] (compound 1 μg/ml), in data set [2] (compound 10 μg/ml) and in data set [2] (compound 100 μg/ml) were 33.1%, 33.8% and 70.4%, respectively. Moreover, the TNF-α in data set [2] (setting [4]) was determined as 5463 pg/mL; in data set [2] (compound 10 μg/ml), 5302 pg/mL; in data set [2] (setting [5]) it was 58 pg/mL.

Take `CC(C)(C)OC[C@@H]1NC(=O)[C@H](Cc2ccccc2)NC(=O)C[C@H](Cc2ccccc2)NC(=O)[C@@H]2CCCN2C1=O` [I-AL] (cyclo(FS(tBu)P[β3hF])): the “PHA-induced PBMC proliferation, P vs DMSO at appropriate dilution” value in data set [1] (10 μg/ml, FIGS. 9A-9F) turned out to be 0.2258; in data set [1] (100 μg/ml, FIGS. 9A-9F) it was 0.9976. Further, the “foot pad edema (increase of foot pad thickness), P vs Control” value in data set [3] is recorded as 0.0001. The “PBMC survival, P vs DMSO” value amounted to 1.0000 in the data set with human PBMC (setting [6]) and 0.0466 with human PBMC (setting [7]).

In the case of `O=C1C[C@H](Cc2ccccc2)NC(=O)[C@H]2CCCN2C(=O)[C@H]2CCCN2C(=O)[C@@H](Cc2ccccc2)N1` [I-E] (cyclo([dF][dP][dP][β3hF])), the “PHA-induced PBMC proliferation, P vs DMSO at appropriate dilution” value in data set [1] (1 μg/ml, FIGS. 9A-9B) worked out at 1.0000; in data set [1] (10 μg/ml, FIGS. 9A-9F), 1.0000; in data set [1] (100 μg/ml, FIGS. 9A-9F), 0.9982. For the same molecule, the “% inhibition vs. DMSO” value in data set [2] (compound 1 μg/ml) stood at 19.0%; in data set [2] (compound 10 μg/ml), 20.7%; in data set [2] (compound 100 μg/ml) it was 10.2%. For the same molecule, the values for the TNF-α in data set [2] (setting [4]), in data set [2] (compound 10 μg/ml) and in data set [2] (setting [5]) were 6614 pg/mL, 6346 pg/mL and 176 pg/mL, respectively.

For `O=C1C[C@H](Cc2ccccc2)NC(=O)[C@H]2CCCN2C(=O)[C@@H]2CCCN2C(=O)[C@H](Cc2ccccc2)N1` [I-H] (cyclo(FP[dP][β3hF])), the “PHA-induced PBMC proliferation, P vs DMSO at appropriate dilution” value in data set [1] (1 μg/ml, FIGS. 9A-9B) is on record as 0.5198; in data set [1] (10 μg/ml, FIGS. 9A-9F) it was 1.0000; in data set [1] (100 μg/ml, FIGS. 9A-9F) it was 0.2037. Moreover, the results for the “% inhibition vs. DMSO” value in data set [2] (compound 1 μg/ml), in data set [2] (compound 10 μg/ml) and in data set [2] (compound 100 μg/ml) were 12.8%, 10.0% and 43.9%, respectively. Also, the values for the TNF-α in data set [2] (setting [4]), in data set [2] (compound 10 μg/ml) and in data set [2] (setting [5]) were 7123 pg/mL, 7203 pg/mL and 110 pg/mL, respectively.

In the case of `O=C1C[C@H](Cc2ccccc2)NC(=O)[C@@H]2CCCN2C(=O)[C@@H]2CCCN2C(=O)[C@@H](Cc2ccccc2)N1` [I-D] (cyclo(PP[β3hF][dF])), the “PHA-induced PBMC proliferation, P vs DMSO at appropriate dilution” value in data set [1] (1 μg/ml, FIGS. 9A-9B) stood at 1.0000; in data set [1] (10 μg/ml, FIGS. 9A-9F), 0.9999; in data set [1] (100 μg/ml, FIGS. 9A-9F), 1.0000. The “% inhibition vs. DMSO” value in data set [2] (compound 1 μg/ml) amounted to 14.1%; in data set [2] (compound 10 μg/ml), 28.1%; in data set [2] (compound 100 μg/ml) it was 28.1%. Further, the TNF-α in data set [2] (setting [4]) was determined as 7016 pg/mL; in data set [2] (compound 10 μg/ml), 5757 pg/mL; in data set [2] (setting [5]), 141 pg/mL.

On to `O=C1C[C@H](Cc2ccccc2)NC(=O)[C@@H]2CCCN2C(=O)[C@H]2CCCN2C(=O)[C@H](Cc2ccccc2)N1` [I-F] (cyclo([dP]P[β3hF]F)), for which the “PHA-induced PBMC proliferation, P vs DMSO at appropriate dilution” value in data set [1] (1 μg/ml, FIGS. 9A-9B) stood at 1.0000; in data set [1] (10 μg/ml, FIGS. 9A-9F), 0.9930; in data set [1] (100 μg/ml, FIGS. 9A-9F) it was 0.0001. In addition, the “% inhibition vs. DMSO” value amounted to 25.9% in data set [2] (compound 1 μg/ml), 34.8% in data set [2] (compound 10 μg/ml) and 61.2% in data set [2] (compound 100 μg/ml). Moreover, the figures for the TNF-α in data set [2] (setting [4]), in data set [2] (compound 10 μg/ml) and in data set [2] (setting [5]) were 6052 pg/mL, 5222 pg/mL and 76 pg/mL, respectively.

As for `CC(C)(C)Oc1ccc(C[C@H]2CC(=O)N[C@@H](Cc3ccccc3)C(=O)N3CCC[C@H]3C(=O)N3CCC[C@H]3C(=O)N2)cc1` [I-AF], the “PHA-induced PBMC proliferation, P vs DMSO at appropriate dilution” value in data set [1] (10 μg/ml, FIGS. 9A-9F) came out at 0.9850; in data set [1] (100 μg/ml, FIGS. 9A-9F), 0.0010. For the same molecule, the “foot pad edema (increase of foot pad thickness), P vs Control” value in data set [3] came to 1.0000. Moreover, the “PBMC survival, P vs DMSO” value is given as 1.0000 in the data set with human PBMC (setting [6]) and 0.0090 in the data set with human PBMC (setting [7]).
